≈ marks a conversion by molar mass, not a printed value. Read-outs that look alike come from different tables or passages of the source.
Key:
[1] = system: Bacillus subtilis PCI 219; test: MIC, serial two-fold agar dilution method; format: cell-based; conditions: PCI219
Method: (§1) The minimum inhibitory concentration (MIC) of BBM-2040 was determined for a variety of gram-positive, gram-negative and acid-fast bacteria by the serial two-fold agar dilution method. Nutrient agar medium was used for gram-positive and gram-negative organisms and No. 1001 medium (3% glycerol, 0.3% sodium L-glutamate, 0.2% peptone, 0.31% Na2 HPO4, 0.1% KH2 PO4, 0.005% ammonium citrate, 0.001% MgSO4 and 1.5% agar) for acid-fast organisms.

[2] = system: Escherichia coli Juhl; test: MIC, serial two-fold agar dilution method; format: cell-based
Method: as §1

[3] = system: Escherichia coli NIHJ; test: MIC, serial two-fold agar dilution method; format: cell-based
Method: as §1

[4] = system: Klebsiella pneumoniae D-11; test: MIC, serial two-fold agar dilution method; format: cell-based; conditions: D11
Method: as §1

[5] = system: Micrococcus flavus D12; test: MIC, serial two-fold agar dilution method; format: cell-based
Method: as §1

[6] = system: Mycobacterium phlei D88; test: MIC, serial two-fold agar dilution method; format: cell-based; conditions: Mycolicibacterium phlei
Method: as §1

[7] = system: Mycobacterium smegmatis 607; test: MIC, serial two-fold agar dilution method; format: cell-based; conditions: Mycolicibacterium smegmatis
Method: as §1

[8] = system: Proteus vulgaris A9436; test: MIC, serial two-fold agar dilution method; format: cell-based
Method: as §1

[9] = system: Pseudomonas aeruginosa A9930; test: MIC, serial two-fold agar dilution method; format: cell-based
Method: as §1

[10] = system: Staphylococcus aureus FDA 209P; test: MIC, serial two-fold agar dilution method; format: cell-based; conditions: FDA209P
Method: as §1

[11] = system: Staphylococcus aureus Smith; test: MIC, serial two-fold agar dilution method; format: cell-based
Method: as §1

[12] = system: Streptococcus pyogenes A20201; test: MIC, serial two-fold agar dilution method; format: cell-based
Method: as §1

[13] = system: Streptococcus pyogenes PCI 1001; test: MIC, serial two-fold agar dilution method; format: cell-based; conditions: PCI1001
Method: as §1

[14] = system: gram-positive, gram-negative and acid-fast bacteria; test: antibacterial activity / spectrum; format: cell-based; conditions: Streptococcus pyogenes, Micrococcus luteus, Micrococcus flavus and Mycobacterium strains
Method: as §1

[15] = system: lymphocytic leukemia P388; test: antitumor activity against lymphocytic leukemia P388 in mice (Table 6); format: in vivo, mice (BDF1 strain); conditions: qd 1→9; for antitumor activity in P388 experiment (comparison): ip
Method: The antitumor activity of BBM-2040A and B was determined in mice (BDF1 strain) against lymphocytic leukemia P388. Each mouse was inoculated intraperitoneally with 10^6 cells of tumor. Graded doses of test compounds were administered to mice intraperitoneally 24 hours after the tumor implantation. The treatments were given once daily for 9 days (qd 1→9 schedule). Neothramycin was comparatively tested as a reference compound.
*ratio of median survival time of test and control animals
**circle indicates significant antitumor effect.

[16] = solubility
[17] = system: lymphatic leukemia P388; test: antitumor activity against P388 leukemia in mice, second experiment (Table 7); format: in vivo, male BDF1 mice; conditions: QD 1→9; for Effect MST % T/C: ≥ 125 significant
Method: In this experiment lymphatic leukemia P388 was implanted intraperitoneally into male BDF1 mice at an inoculum size of 10^6 cells per mouse. Test compounds were dissolved in 0.9% saline containing 10% dimethylsulfoxide. Graded doses of test compounds were administered to mice intraperitoneally 24 hours after the tumor implantation, and the treatment was continued once daily for 9 days.
Tumor inoculum: 10^6 ascites cells implanted i.p.
Treatment: QD 1→9, i.p.
Evaluation: MST = median survival time
Effect: % T/C = (MST treated/MST control) × 100
Criteria: % T/C ≥ 125 considered as significant antitumor activity

[18] = intraperitoneal; reported value; cited from earlier work

With `COc1cc2c(cc1O)N=C[C@@H]1C[C@H](O)CN1C2=O` [BBM-2040B] the MIC ([1]; Bacillus subtilis PCI 219, read-out: MIC) was greater than 100 µg/mL, the MIC ([2]; Escherichia coli Juhl, read-out: MIC) was greater than 100 µg/mL and the MIC ([3]; Escherichia coli NIHJ, read-out: MIC) was greater than 100 µg/mL. For the same compound, the MIC ([4]; Klebsiella pneumoniae D-11, read-out: MIC) was greater than 100 µg/mL, the MIC ([5]; read-out: MIC) was 50 µg/mL (≈ 191 µM) and the MIC ([6]; Mycobacterium phlei D88, No. 1001 medium, read-out: MIC) was 100 µg/mL (≈ 381 µM). For the same compound, the MIC ([7]; Mycobacterium smegmatis 607, No. 1001 medium, read-out: MIC) was 100 µg/mL (≈ 381 µM), the MIC ([8]; read-out: MIC) was greater than 100 µg/mL and the MIC ([9]; read-out: MIC) was greater than 100 µg/mL. For the same compound, the MIC ([10]; Staphylococcus aureus FDA 209P, read-out: MIC) was greater than 100 µg/mL, the MIC ([11]; Staphylococcus aureus Smith, read-out: MIC) was greater than 100 µg/mL and the MIC ([12]; read-out: MIC) was 50 µg/mL (≈ 191 µM). For the same compound, the MIC ([13]; Streptococcus pyogenes PCI 1001, read-out: MIC) was 100 µg/mL (≈ 381 µM), the antibacterial activity [14] was “weak antibacterial activity” and the “T/C (%) in MST” value ([15]; 0.1 mg/kg/day ip) was 104%. For the same compound, the “T/C (%) in MST” value ([15]; 0.3 mg/kg/day ip) was 96%, the “T/C (%) in MST” value ([15]; 1 mg/kg/day ip) was 112% and the “antitumor activity in P388 experiment (comparison)” value [15] was “somewhat less active than BBM-2040A”. The solubility ([16]; benzene, chloroform and n-hexane) was “practically insoluble”, the solubility ([16]; ethyl acetate, acetone and water) was “slightly soluble” and the solubility ([16]; methanol ethanol, n-butanol and pyridine) was “readily soluble”.
With `COc1cc2c(cc1O)N=CC1CCC(O)N1C2=O` (stereo not drawn) [Neothramycin] the MIC ([1]; Bacillus subtilis) was 50 µg/mL (≈ 191 µM), the MIC ([2]; Escherichia coli) was greater than 100 µg/mL and the MIC ([3]; Escherichia coli) was 50 µg/mL (≈ 191 µM). For the same compound, the MIC ([4]; Klebsiella pneumoniae) was 100 µg/mL (≈ 381 µM), the MIC [5] was 100 µg/mL (≈ 381 µM) and the MIC ([6]; D88) was greater than 100 µg/mL. For the same compound, the MIC [7]; 607 was greater than 100 µg/mL, the MIC [8] was 100 µg/mL (≈ 381 µM) and the MIC [9] was greater than 100 µg/mL. The MIC ([10]; Staphylococcus aureus) was greater than 100 µg/mL, the MIC ([11]; Staphylococcus aureus) was greater than 100 µg/mL and the MIC [12] was 50 µg/mL (≈ 191 µM). The MIC ([13]; Streptococcus pyogenes) was 100 µg/mL (≈ 381 µM), the “T/C (%) in MST” value ([15]; 0.03 mg/kg/day ip) was 96% and the “T/C (%) in MST” value ([15]; 0.1 mg/kg/day ip) was 104%. The “T/C (%) in MST” value ([15]; 0.3 mg/kg/day ip) was 112%, the “antitumor activity in P388 experiment (comparison)” value [15] was “similarly active” and the Average weight change ([17]; 0.1 mg/kg/day i.p.) was “+1.0 g”. The MST ([17]; 0.1 mg/kg/day i.p.) was 13.0 days, the “Survivors Day 5” value ([17]; 0.1 mg/kg/day i.p.) was 6/6 and the “Survivors Day 22” value ([17]; 0.1 mg/kg/day i.p.) was 0/6. The “Effect MST % T/C” value ([17]; 0.1 mg/kg/day i.p.) was 108%, the Average weight change ([17]; 0.3 mg/kg/day i.p.) was “+0.8 g” and the MST ([17]; 0.3 mg/kg/day i.p.) was 14.5 days. The “Survivors Day 5” value ([17]; 0.3 mg/kg/day i.p.) was 6/6, the “Survivors Day 22” value ([17]; 0.3 mg/kg/day i.p.) was 0/6 and the “Effect MST % T/C” value ([17]; 0.3 mg/kg/day i.p.) was 121%. The Average weight change ([17]; 1 mg/kg/day i.p.) was “+0.5 g”, the MST ([17]; 1 mg/kg/day i.p.) was 17.0 days and the “Survivors Day 5” value ([17]; 1 mg/kg/day i.p.) was 6/6. For the same compound, the “Survivors Day 22” value ([17]; 1 mg/kg/day i.p.) was 0/6, the “Effect MST % T/C” value ([17]; 1 mg/kg/day i.p.) was 142% and the Average weight change ([17]; 3 mg/kg/day i.p.) was 0.0 g. The MST ([17]; 3 mg/kg/day i.p.) was 17.5 days, the “Survivors Day 5” value ([17]; 3 mg/kg/day i.p.) was 6/6 and the “Survivors Day 22” value ([17]; 3 mg/kg/day i.p.) was 0/6. The “Effect MST % T/C” value ([17]; 3 mg/kg/day i.p.) was 146%, the “antitumor activity in second P388 experiment (in words)” value ([17]; i.p., epimer: 1 mg/kg/day, the highest dose tested) was “similarly active” and the LD50 [18] was 20 to 30 mg/kg.
